Results: patent US20170305857A1, “N-ACYLPIPERIDINE ETHER TROPOMYOSIN-RELATED KINASE INHIBITORS” (Pfizer Limited, priority 2014, published 2017)

Molecular target: T1, recombinant His-tagged cytoplasmic domains of TRKA receptor (NTRK1, PV3144, aa 441-796) (Homo sapiens, UniProt P04629)
T1 construct: aa 441-796; His; purchased Invitrogen PV3144
Assay: Isolated TRK enzyme assay (HTRF KinEASE-TK, PV3144 TrkA enzyme assay)
Assay type: biochemical
Conditions: 4 nM enzyme, 40 uM ATP, 35 min, arithmetic mean where more than one reading
Method: Isolated TRK Enzyme assays use the HTRF KinEASE-TK kit (Cisbio Cat #62TK0PEJ) with recombinant His-tagged cytoplasmic domains of TRKA receptor sourced from Invitrogen (see table below). This activity-assay measures the phosphorylation of tyrosine residues within a substrate from the HTRF kit which has been validated by Cisbio for a variety of tyrosine kinases including the TRK receptors.
0.5 mM stock solutions of test compounds are prepared and serially diluted in 100% DMSO. […] Greiner low volume black plates containing 0.2 ul of serially diluted compound, standard and HPE/ZPE are created using the Bravo nanolitre dispenser.
1× enzyme buffer is prepared from 5× Enzymatic Buffer from the Cisbio KinEASE TK kit using MilliQ water. The buffer is then supplemented with 10 mM MgCl and 2 mM DTT (both from Sigma).
Following this preactivation step, 5 ul/well of enzyme+ATP mix is added using a Multidrop Micro to the assay plate, spotted with 0.2 ul 100% DMSO compound. This is left for 20 mins at room temperature before adding 5 ul of 2 uM TK-substrate-Biotin (from the Cisbio kit) diluted in 1× enzyme buffer (1 uM FAC) using the Multidrop Micro. The reaction is incubated at room temperature for the optimized assay reaction time (see table).
After the Detection Reagent addition, plates are covered and incubated at room temperature for 60 minutes. […] Test compound data are expressed as percentage inhibition defined by HPE and ZPE values for each plate. Percentage inhibition in the presence of test compound is plotted against compound concentration on a log scale to determine an IC50 from the resultant sigmoid curve.
Where more than one reading was taken, the arithmetic mean is presented.

T1 sequence (P04629 441-796): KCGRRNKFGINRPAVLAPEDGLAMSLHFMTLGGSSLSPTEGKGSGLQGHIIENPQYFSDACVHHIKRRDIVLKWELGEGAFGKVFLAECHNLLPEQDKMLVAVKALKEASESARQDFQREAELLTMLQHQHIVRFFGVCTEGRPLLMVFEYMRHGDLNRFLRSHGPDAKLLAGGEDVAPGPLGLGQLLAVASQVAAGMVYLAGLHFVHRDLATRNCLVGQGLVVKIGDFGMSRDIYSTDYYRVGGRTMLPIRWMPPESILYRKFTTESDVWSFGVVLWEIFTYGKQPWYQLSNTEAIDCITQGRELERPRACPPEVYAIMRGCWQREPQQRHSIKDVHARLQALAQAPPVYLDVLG

CC1CC(Oc2ccc(-c3cn(C)cn3)cc2C(N)=O)CCN1C(=O)Cc1ccc(OC(F)(F)F)cc1 (racemic) [Example 51, Racemic 2-((2-methyl-1-(2-(4-(trifluoromethoxy)phenyl)acetyl)piperidin-4-yl)oxy)-5-(1-methyl-1H-imidazol-4-yl)benzamide]
IC50: 6.1 nM

CC(C)(O)Cn1cc(-c2ccc(O[C@H]3CCN(C(=O)Cc4ccc(OC5CC5)cn4)C[C@H]3F)c(C(N)=O)c2)cn1 (racemic) [Example 45]
IC50: 1.8 nM

Cc1nc(-c2ccc(OC3CCN(C(=O)Cc4ccc(OC(F)(F)F)cc4)CC3)c(C(N)=O)c2)c[nH]1 [Example 146, 5-(2-methyl-1H-imidazol-4-yl)-2-[(1-{[4-(trifluoromethoxy)phenyl]acetyl}piperidin-4-yl)oxy]benzamide]
IC50: 11.6 nM

C[C@@H](N)c1ccc(-c2ccc(OC3CCN(C(=O)Cc4ccc(OC(F)(F)F)cc4)CC3)c(C(N)=O)c2)cc1 [Example 64, 4′-[(1R)-1-aminoethyl]-4-[(1-{[4-(trifluoromethoxy)phenyl]acetyl}piperidin-4-yl)oxy]biphenyl-3-carboxamide]
IC50: 2.8 nM

CS(=O)(=O)Cn1cc(-c2cc(C(N)=O)c(O[C@@H]3CCN(C(=O)Cc4ccc(OC(F)(F)F)cc4)C[C@@H]3F)cn2)cn1 [Example 36, 5-{[(3S,4R)-3-fluoro-1-{[4-(trifluoromethoxy)phenyl]acetyl}piperidin-4-yl]oxy}-2-{1-[(methylsulfonyl)methyl]-1H-pyrazol-4-yl}pyridine-4-carboxamide]
IC50: 3.4 nM

NC(=O)c1cc(-c2c[nH]cn2)cnc1O[C@H]1CCN(C(=O)Cc2ccc(OC(F)(F)F)cc2)C[C@@H]1F [Example 82, 2-{[(3S,4S)-3-fluoro-1-{[4-(trifluoromethoxy)phenyl]acetyl}piperidin-4-yl]oxy}-5-(1H-imidazol-4-yl)pyridine-3-carboxamide]
IC50: 4.2 nM

NC(=O)c1cc(-c2cc[nH]n2)cnc1OC1CCN(C(=O)Cc2ccc(SC(F)(F)F)cc2)CC1 [Example 60, 5-(1H-pyrazol-3-yl)-2-{[1-({4-[(trifluoromethyl)sulfanyl]phenyl}acetyl)piperidin-4-yl]oxy}pyridine-3-carboxamide]
IC50: 10 nM

Cc1nc(-c2cnc(OC3CCN(C(=O)Cc4ccc(OC(F)(F)F)cc4)CC3)c(C(N)=O)c2)c[nH]1 [Example 139, 5-(2-methyl-1H-imidazol-4-yl)-2-[(1-{[4-(trifluoromethoxy)phenyl]acetyl}piperidin-4-yl)oxy]pyridine-3-carboxamide]
IC50: 10.7 nM

NC(=O)c1cc(-c2cn(CCO)cn2)cnc1OC1CCN(C(=O)Cc2ccc(OC(F)(F)F)cc2)CC1 [Example 116, 5-[1-(2-hydroxyethyl)-1H-imidazol-4-yl]-2-[(1-{[4-(trifluoromethoxy)phenyl]acetyl}piperidin-4-yl)oxy]pyridine-3-carboxamide]
IC50: 8.1 nM

Cc1nnc(-c2ccc(OC3CCN(C(=O)Cc4ccc(OC(F)(F)F)cc4)CC3)c(C(N)=O)c2)s1 [Example 147, 5-(5-methyl-1,3,4-thiadiazol-2-yl)-2-[(1-{[4-(trifluoromethoxy)phenyl]acetyl}piperidin-4-yl)oxy]benzamide]
IC50: 12.6 nM

Cc1nc[nH]c1-c1cnc(OC2CCN(C(=O)Cc3ccc(OC(F)(F)F)cc3)CC2)c(C(N)=O)c1 [Example 179, 5-(4-methyl-1H-imidazol-5-yl)-2-[(1-{[4-(trifluoromethoxy)phenyl]acetyl}piperidin-4-yl)oxy]pyridine-3-carboxamide]
IC50: 13.2 nM

Cn1cc(-c2cnc(O[C@@H]3CCN(C(=O)Cc4ccc(OC(F)(F)F)cc4)C[C@@H]3F)c(C(N)=O)c2)cn1 [Example 71, 2-{[(3S,4R)-3-fluoro-1-{[4-(trifluoromethoxy)phenyl]acetyl}piperidin-4-yl]oxy}-5-(1-methyl-1H-pyrazol-4-yl)pyridine-3-carboxamide]
IC50: 1.3 nM

C[C@@H](O)Cn1cc(-c2ccc(OC3CCN(C(=O)Cc4ccc(OC(F)(F)F)cc4)CC3)c(C(N)=O)c2)cn1 [Example 133]
IC50: 2.6 nM

NC(=O)c1cc(-c2cscn2)cnc1OC1CCN(C(=O)Cc2ccc(OC(F)(F)F)cc2)CC1 [Example 180]
IC50: 8.26 nM

NC(=O)c1cc(-c2cn(C[C@H](O)CO)cn2)ccc1OC1CCN(C(=O)Cc2ccc(OC(F)(F)F)cc2)CC1 [Example 125]
IC50: 6.6 nM

Cn1cc(-c2ccc(OC3CCN(C(=O)Cc4ccc(OC(F)(F)F)c(F)c4)CC3)c(C(N)=O)c2)cn1 [Example 111, 2-[(1-{[3-fluoro-4-(trifluoromethoxy)phenyl]acetyl}piperidin-4-yl)oxy]-5-(1-methyl-1H-pyrazol-4-yl)benzamide]
IC50: 4.5 nM

Cn1cnc(-c2ccc(O[C@@H]3CCN(C(=O)Cc4ccc(OC(F)(F)F)cc4)C[C@@H]3F)c(C(N)=O)c2)c1 [Example 6, 2-{[(3S,4R)-3-fluoro-1-(2-(4-(trifluoromethoxy)phenyl)acetyl)piperidin-4-yl]oxy}-5-(1-methyl-1H-imidazol-4-yl)benzamide]
IC50: 1.5 nM

Cn1cnc(-c2ccc(OC3CCN(C(=O)Cc4ccc(OC(F)(F)F)cc4)CC3(C)C)c(C(N)=O)c2)c1 (racemic) [Example 49, Racemic 2-((3,3-dimethyl-1-(2-(4-(trifluoromethoxy)phenyl)acetyl)piperidin-4-yl)oxy)-5-(1-methyl-1H-imidazol-4-yl)benzamide]
IC50: 3.7 nM

Cc1nc[nH]c1-c1ccc(OC2CCN(C(=O)Cc3ccc(OC(F)(F)F)cc3)CC2)c(C(N)=O)c1 [Example 99, 5-(4-methyl-1H-imidazol-5-yl)-2-[(1-{[4-(trifluoromethoxy)phenyl]acetyl}piperidin-4-yl)oxy]benzamide]
IC50: 7.7 nM

NC(=O)c1cc(-c2ccc(N)nc2)ccc1OC1CCN(C(=O)Cc2ccc(OC(F)(F)F)cc2)CC1 [Example 104, 5-(6-aminopyridin-3-yl)-2-[(1-{[4-(trifluoromethoxy)phenyl]acetyl}piperidin-4-yl)oxy]benzamide]
IC50: 4 nM

NC(=O)c1cc(-c2cnn(C3CS(=O)(=O)C3)c2)cnc1O[C@@H]1CCN(C(=O)Cc2ccc(OC(F)(F)F)cc2)C[C@@H]1F [Example 23, 5-[1-(1,1-dioxidothietan-3-yl)-1H-pyrazol-4-yl]-2-{[(3S,4R)-3-fluoro-1-{[4-(trifluoromethoxy)phenyl]acetyl}piperidin-4-yl]oxy}pyridine-3-carboxamide]
IC50: 1.4 nM

NC(=O)c1cc(-c2cnn(CCO)c2)cnc1OC1CCN(C(=O)Cc2ccc(OC(F)(F)F)cc2)CC1 [Example 89, 5-[1-(2-hydroxyethyl)-1H-pyrazol-4-yl]-2-[(1-{[4-(trifluoromethoxy)phenyl]acetyl}piperidin-4-yl)oxy]pyridine-3-carboxamide]
IC50: 5.4 nM

NC(=O)c1cc(-c2cn[nH]c2)ncc1O[C@H]1CCN(C(=O)Cc2ccc(OC(F)(F)F)cc2)C[C@H]1F [Example 88, 5-{[(3R,4S)-3-fluoro-1-{[4-(trifluoromethoxy)phenyl]acetyl}piperidin-4-yl]oxy}-2-(1H-pyrazol-4-yl)pyridine-4-carboxamide]
IC50: 1.5 nM

NC(=O)c1cc(-c2ccc3c(c2)CNS3(=O)=O)ccc1OC1CCN(C(=O)Cc2ccc(OC(F)(F)F)cc2)CC1 [Example 63, 5-(1,1-dioxido-2,3-dihydro-1,2-benzothiazol-5-yl)-2-[(1-{[4-(trifluoromethoxy)phenyl]acetyl}piperidin-4-yl)oxy]benzamide]
IC50: 6.7 nM
